In patent US20040019429A1, “Methods and systems for analyzing complex biological systems” (priority 2001, published 2004):

Legend:
Arabidopsis thaliana [1] = experiment: MOA1 phenotypic profiling of sprayed plants (eleven phenotypic characteristics); format: in vivo; conditions: hierarchical cluster analysis of eleven phenotypic characteristics
Arabidopsis thaliana [2] = experiment: MOA1 biochemical (metabolite) profiling by LC-MS and GC-MS; conditions: 20 minutes and 1 hour after spraying
[3] = system: Saccharomyces cerevisiae wild type strain BY4743; experiment: AF1 yeast metabolite analysis by GC-MS and LC-MS after antifungal drug treatment; format: cell-based; conditions: for # Compounds perturbed by treatment: 2X MIC, two hours
yeast cells = experiment: AF1 combined gene expression and metabolite data mapped to KEGG reactions and pathways; set-up: species or system Saccharomyces cerevisiae
From the text: The pathway score indicates how meaningful the mapping is, or how likely it is to be correctly indicative of the pathway involved in the perturbation under examination. The method provides a pathway score based on perturbation levels of genes and/or compounds and the information content of each gene and/or compound in the pathway, i.e., a pathway score indicates the extent to which other pathways are mapped to a gene/compound. For example, imagine that two genes are perturbed in a particular experiment. One gene maps to only one pathway, giving a high degree of probability that the perturbed pathway is the one identified in the mapping. The second gene maps to three pathways. In the later example, there is only one-third the probability that the pathway identified in the mapping is the one perturbed. […] Degree of perturbation can be calculated, for example, based on a number of standard deviations from a norm, and included in an equation such as the one shown above, so that not only the number of pathways is taken into account, but also accounts for the amount of gene transcript, or compound present as compared to a control. […] KEGG links 676 compounds measured in AF1 to a total of 92 pathways. Of the 676 compounds under consideration, 77 were detected in the AF1 samples. […]

SMILES | Phenotype and phenotypic clustering (in words) (Arabidopsis thaliana [1]) | Regulated metabolites relative to control (in words) (Arabidopsis thaliana [2]) | # Compounds perturbed by treatment ([3]; P < 0.05) | # Compounds perturbed by treatment ([3]; P < 0.1) | Fold Change, abscisic acid ([3]; platform LC) | Fold Change, adenosine ([3]; platform LC) | Fold Change, riboflavin ([3]; platform LC) | Fold Change, selenoOLmethionine ([3]; platform nLC) | Number Of Pathways Having at Least One Enzyme and One Compound Perturbed (# Reactions) (yeast cells) | Number of Reactions Having an Enzyme and at Least One Compound Perturbed (yeast cells)
CC(C)OC(=O)Nc1cccc(Cl)c1 [Chloropropham] | neither showed a strong herbicidal phenotype | neither butylate nor chlorpropham treatment resulted in many changes in these commonly regulated metabolites | – | – | – | – | – | – | – | –
C[C@@H]1[C@H](O)[C@@H](C)/C=C/C=C/C=C/C=C/C=C/C=C/C=C/[C@H](O[C@@H]2O[C@H](C)[C@@H](O)[C@H](N)[C@@H]2O)C[C@@H]2O[C@](O)(C[C@@H](O)C[C@@H](O)[C@H](O)CC[C@@H](O)C[C@@H](O)CC(=O)O[C@H]1C)C[C@H](O)[C@H]2C(=O)O [Amphoteracin B] | – | – | 16 | 21 | 0 | 0 | 0 | 0.8515 | 37 | 54
CCSC(=O)N(CC(C)C)CC(C)C [Butylate] | neither showed a strong herbicidal phenotype | neither butylate nor chlorpropham treatment resulted in many changes in these commonly regulated metabolites | – | – | – | – | – | – | – | –
